Earlier results on one molecule are cited in US9376416B2, “Composition containing scirpusin B, and process for producing composition containing scirpusin B” (MORINAGA & CO., LTD., priority 2010, dated 2016).

Each structure is given as a SMILES string.

One data set deals with HIV. Particulars: reported in Non-Patent Citation 1.
For data set [1] the following is noted: reported in Non-Patent Citation 2.
In a further data set the test system is α-amylase. Particulars: reported in Non-Patent Citation 3 (mouse α-amylase).
For the next data set, the target named is xanthine oxidase (Homo sapiens, UniProt P47989). Particulars: reported in Non-Patent Citation 4.
xanthine oxidase, sequence (P47989 whole entry, species assumed): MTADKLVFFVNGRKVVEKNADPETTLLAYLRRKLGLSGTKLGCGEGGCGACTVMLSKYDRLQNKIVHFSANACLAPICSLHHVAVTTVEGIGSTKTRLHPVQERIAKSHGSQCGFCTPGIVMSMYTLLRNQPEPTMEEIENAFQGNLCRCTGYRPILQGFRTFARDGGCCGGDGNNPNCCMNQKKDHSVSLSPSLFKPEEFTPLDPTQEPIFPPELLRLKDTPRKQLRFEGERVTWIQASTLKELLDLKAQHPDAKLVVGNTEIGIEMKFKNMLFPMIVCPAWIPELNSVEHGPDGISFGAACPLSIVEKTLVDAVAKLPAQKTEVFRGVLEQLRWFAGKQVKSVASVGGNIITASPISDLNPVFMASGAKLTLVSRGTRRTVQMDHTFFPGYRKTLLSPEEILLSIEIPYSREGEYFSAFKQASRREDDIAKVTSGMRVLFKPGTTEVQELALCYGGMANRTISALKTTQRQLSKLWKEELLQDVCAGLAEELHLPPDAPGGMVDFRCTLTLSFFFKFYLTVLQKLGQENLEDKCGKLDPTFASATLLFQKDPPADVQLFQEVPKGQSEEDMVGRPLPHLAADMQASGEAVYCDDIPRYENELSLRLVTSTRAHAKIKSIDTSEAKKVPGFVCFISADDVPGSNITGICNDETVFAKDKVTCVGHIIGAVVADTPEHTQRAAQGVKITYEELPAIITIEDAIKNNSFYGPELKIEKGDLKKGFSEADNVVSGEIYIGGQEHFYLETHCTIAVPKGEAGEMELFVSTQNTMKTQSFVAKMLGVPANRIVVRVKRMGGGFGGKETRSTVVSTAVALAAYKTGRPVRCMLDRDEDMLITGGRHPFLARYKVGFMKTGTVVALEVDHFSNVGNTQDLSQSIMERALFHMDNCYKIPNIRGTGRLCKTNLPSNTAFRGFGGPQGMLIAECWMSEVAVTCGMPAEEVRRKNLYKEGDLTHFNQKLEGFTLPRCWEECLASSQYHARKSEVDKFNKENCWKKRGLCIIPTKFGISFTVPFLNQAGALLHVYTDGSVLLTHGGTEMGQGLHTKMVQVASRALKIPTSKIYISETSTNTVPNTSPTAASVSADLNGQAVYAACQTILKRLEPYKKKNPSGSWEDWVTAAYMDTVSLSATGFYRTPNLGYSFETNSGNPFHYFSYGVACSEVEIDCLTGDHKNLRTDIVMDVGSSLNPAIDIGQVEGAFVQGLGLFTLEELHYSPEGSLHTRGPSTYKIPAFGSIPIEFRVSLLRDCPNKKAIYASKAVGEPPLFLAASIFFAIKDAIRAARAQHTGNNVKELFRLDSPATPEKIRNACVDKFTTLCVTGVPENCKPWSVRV

For the molecule `Oc1cc(O)cc(C2c3c(/C=C/c4ccc(O)c(O)c4)cc(O)cc3OC2c2ccc(O)c(O)c2)c1` (stereo not shown) [scirpusin B], the anti-HIV activity entry in the data set on HIV was “has anti-HIV activity”. For the same molecule, in data set [1], the “superoxide anion removal activity” value is “has superoxide anion removal activity”. Further, the “α-amylase activity inhibitory activity” value in the data set with α-amylase is “has α-amylase activity inhibitory activity”. For the same molecule, the “xanthine oxidase inhibitory activity” value on xanthine oxidase is “has xanthine oxidase inhibitory activity”.
